In patent US9446039B2, “Aminoheteroaryl compounds as MTH1 inhibitors” (CEMM—FORSCHUNGSZENTRUM FÜR MOLEKULARE MEDIZIN GMBH, priority 2012, dated 2016):
Entries after “also recorded” stand apart in the source; their conditions may differ.

What was measured:
MRC-5 lung fibroblasts = experiment: Comet assay in MRC-5 lung fibroblasts; type: cell-based
Procedure: (§1) Comet Assay. Cells were treated with compounds for 6 days, upon which DNA single-strand breaks were assayed using the comet assay under alkali conditions. […] Cells were washed twice with PBS, harvested using a rubber scraper, pelleted by centrifugation, resuspended in PBS and mixed with 1% low-gelling-temperature agarose (Sigma type VII) that was maintained at 37° C. The mixture of cells and agarose was layered onto frosted glass slides pre-coated with 0.5% agarose and slides were placed on ice to gel. Slides were maintained in the dark for all subsequent steps. […] After electrophoresis for 25 minutes at 25 volts, slides were placed at 4° C. over-night, in the dark. The following day, slides were neutralized with 0.4 M Tris-HCl pH 7.0 for 1 hour and stained with SYBR Gold (Invitrogen, diluted 1:10,000 in distilled water) for 30 minutes. Comet tail moments (defined as the average distance migrated by the DNA multiplied by the fraction of DNA in the comet tail) were scored using the CellProfiler cell image analysis software.

[1] = system: Ewing's sarcoma family of tumours (ESFT) cells
BJ skin fibroblasts = experiment: Colony formation assay with untransformed BJ skin fibroblasts; type: cell-based, human; settings: 10 days incubation
BJ fibroblasts = experiment: 8-oxo-guanine staining in BJ cells; settings: fixed 72 h later
[2] = system: SH-SY5Y, NCI-H3122 and NCI-H1648 cell lysates; experiment: Chemical proteomics competition pull-downs (iTRAQ) in SH-SY5Y, NCI-H3122 and NCI-H1648 lysates; type: binding, human; settings: competition with 20 μM unmodified crizotinib
MCF-7 = settings: 10 μM, versus DMSO-treated cells
MDA-MB-231 = settings: 10 μM, versus DMSO-treated cells; KRAS G13D
[3] = Tolerability in the xenograft study: hematology, liver/heart/kidney parameters, body weight; type: in vivo, SCID mice
Procedure: Xenograft Study. SCID mice (female, 5-6 weeks, Scanbur, Germany) were s.c. injected with 1×10^6 SW480 cells together with a matrix gel (1:1) in the sacral area. Treatment was initiated one day after cell inoculation. Vehicle or MTH1 inhibitor was administered subcutaneously once daily at 25 mg/kg for 35 days. […] Tumour size was measured twice weekly and body weight once weekly. At termination, a gross postmortem inspection was performed; blood was collected for haematological parameters and ASAT, ALAT, creatinine measurements and tumours collected in paraformaldehyde (4%) and later paraffin inbedded for immunohistology analysis. All experiments involving animals followed protocols approved by Stockholms Norra djurfOrsoksetiska namnd (laboratory animal ethical committee Stockholm). All animals were acclimatised for one week, and had free access to water and food during the experiment. Animals were under a 12-hour lightcycle, and temperature and humidity according to laboratory animal guidelines and regulations.

SW480 cells [4] = experiment: SW480 mouse xenograft study; type: in vivo, SCID mice; settings: 25 mg/kg s.c. once daily, 35 days
Procedure: Xenograft Study. SCID mice (female, 5-6 weeks, Scanbur, Germany) were s.c. injected with 1×10^6 SW480 cells together with a matrix gel (1:1) in the sacral area. Treatment was initiated one day after cell inoculation. Vehicle or MTH1 inhibitor was administered subcutaneously once daily at 25 mg/kg for 35 days. MTH1 inhibitor was diluted in 1% DMSO, 10% ethanol, 10% cremaphore, 10% Tween 80, 69% PBS. Tumour size was measured twice weekly and body weight once weekly. At termination, a gross postmortem inspection was performed; blood was collected for haematological parameters and ASAT, ALAT, creatinine measurements and tumours collected in paraformaldehyde (4%) and later paraffin inbedded for immunohistology analysis. All experiments involving animals followed protocols approved by Stockholms Norra djurfOrsoksetiska namnd (laboratory animal ethical committee Stockholm). All animals were acclimatised for one week, and had free access to water and food during the experiment. Animals were under a 12-hour lightcycle, and temperature and humidity according to laboratory animal guidelines and regulations.

[5] = system: isogenic BJ fibroblast cell lines; experiment: Colony formation assays in isogenic BJ fibroblast cell lines (anti-cancer specificity); type: cell-based; settings: hTERT+SV40T, hTERT+SV40T+KRAS V12
Description: FIG. 28: Anti-cancer specificity. […] As indicated, the investigated cell line panel comprised non-transformed (“wildtype”) cells, cells immortalized with telomerase (hTERT), cells transformed with hTERT and SV40 Large T antigen (SV40T), and cells transformed with hTERT, SV40T, and the KRAS mutant V12.
The investigated cell line panel comprised non-transformed (“wildtype”) cells, cells immortalized with telomerase (hTERT), cells transformed with hTERT and SV40 Large T antigen (SV40T), and cells transformed with hTERT, SV40T, and the KRAS mutant V12 (FIG. 28).

SW480 cells [6] = experiment: Alkaline comet assay (DNA single strand breaks) in SW480 cells; type: cell-based, human; settings: 6 days treatment, alkali conditions
Procedure: as §1

[7] = system: SW480 colon carcinoma cells lysate proteins; type: binding, human; settings: immobilized aminopropyl derivative of (S)-crizotinib
SW480 cells [8] = experiment: ATM phosphorylation in SW480 cells; type: cell-based, human
SW480 cells [9] = experiment: Colony formation assay using SW480 cells; type: cell-based, human; settings: K-Ras-mutated SW480 colon carcinoma
Procedure: Colony Formation Assay Using SW480 Cells. One day before treatment, 10^4 cells were seeded per well in 6-well plates and incubated for 24 h. The next day DMSO (equal to highest amount of compound dilution, maximum 0.2%) or compounds in increasing concentrations were added and cells incubated at 37° C., 5% CO2, for 7-10 days. After washing with PBS (Gibco), cells were fixed with ice-cold methanol, stained with crystal violet solution (0.5% in 25% methanol) and left to dry overnight. For quantification of results, UV absorbance of crystal violet was determined at 595 nm after solubilisation by 70% ethanol. Data were analysed using non-linear regression analysis utilizing the GraphPad Prism software.

SW480 cells [10] = experiment: Indirect immunofluorescence for 53BP1 foci in SW480 cells; type: cell-based, human; settings: 6 days treatment
Procedure: Indirect Immunofluorescence. Cells were treated with compounds for 6 days, following which they were adhered to glass coverslips, washed with PBS and then fixed with 3% paraformaldehyde in PBS for 20 minutes. Fixed cells were rinsed with PBS and permebealised with 0.5% Triton-X-100 for 5 minutes. PBS washed slides were incubated for 1 hour with 10% FCS and 0.1% Triton-X-100 in PBS following which cells were stained with an anti-53BP1 monoclonal antibody (H-300, Santa Cruz, diluted 1:600), in 10% FCS and 0.1% Triton-X-100 in PBS. […] After a PBS wash, DNA was counterstained with DAPI (Sigma-Aldrich) for 10 minutes and the coverslips were mounted in Fluorescent Mounting Medium (Dako). Images were analysed with a Zeiss fluorescent microscope at 63 times magnification with supporting software.

[11] = system: HCT116 colon carcinoma cells; experiment: HCT116 isogenic cell line system (p53/p21/MLH1 status); settings: HCT116 isogenic lines
[12] = system: PANC1 pancreatic cancer cells; experiment: Colony formation assay using PANC1 cells; type: cell-based, human; settings: K-Ras mutated PANC1
ALK = experiment: Drug pull-down with immobilized compounds from SH-SY5Y cells, Western blot for ALK; type: binding, human; settings: SH-SY5Y lysate
Procedure: Immobilization and Affinity Purification. […] Briefly, 25 nmol of compound was immobilised on 50 μL NHS-activated Sepharose 4 Fast Flow beads (GE Healthcare Bio-Sciences AB, Uppsala, Sweden).

MTH1 [13] = biological target: T1, MTH1 (Homo sapiens, UniProt P36639); experiment: MTH1 catalytic assay (luminescence-based, PPi from 8-oxo-dGTP hydrolysis, PPiLight); type: biochemical; design: His-tag (TEV site) (cleaved yes); made in house; host or cells: E. coli BL-21(DE3), vector pETM-11
MTH1 [14] = biological target: T1, MTH1; experiment: Isothermal titration calorimetry (direct binding assay); design: His-tag (TEV site) (cleaved yes); made in house; host or cells: E. coli BL21 DE3; settings: 15° C., 50 mM Tris-HCl pH 7.8, 150 mM NaCl
[15] = system: SW480 colon carcinoma cells; experiment: siRNA experiments (MTH1 gene silencing, colony staining); type: cell-based, human
Procedure: siRNA Experiments. Both a commercial anti-MTH1 siRNA set (SMARTpool ON-TARGETplus, Dharmacon) as well as a custom-synthesised siRNA (Sigma-Aldrich) were obtained. […]. For transfections, cells were seeded in 24-well plates at approximately 30% confluency 24 h prior to siRNA treatment. The next day, medium was aspirated and transfections were performed with […]in (Polyplus) according to manufacturer's instructions using a final siRNA concentration of 10 nM. Cells were incubated for 2-3 days, washed, detached with trypsin and replated in 6-well plates. After 7-10 days, medium was aspirated, cells were washed with PBS, fixed with ice-cold methanol, stained with crystal violet solution (0.5% in 25% methanol) and left to dry overnight. […]. Data were analysed using the GraphPad Prism software (t test, P<0.05).

[16] = 25 mg/kg s.c. 35 days, EDTA plasma, mean ± SD
[17] = 25 mg/kg s.c. 35 days, mean ± SD
[18] = error of nonlinear least squares fit

For `CC(Oc1cc(-c2cnn(C3CCNCC3)c2)cnc1N)c1c(Cl)ccc(F)c1Cl` (racemic) [racemic crizotinib, 3-[1-(2,6-dichloro-3-fluoro-phenyl)-ethoxy]-5-(1-piperidin-4-yl-1H-pyrazol-4-yl)-pyridin-2-ylamine], the “DNA damage in comet assay” value (MRC-5 lung fibroblasts) was “induced DNA damage”.

In the case of `C[C@@H](Oc1cc(-c2cnn(C3CCNCC3)c2)cnc1N)c1c(Cl)ccc(F)c1Cl` [(R)-crizotinib, 3-[1-(2,6-dichloro-3-fluoro-phenyl)-ethoxy]-5-(1-piperidin-4-yl-1H-pyrazol-4-yl)-pyridin-2-ylamine], the “growth inhibition of ESFT cells” value [1] is reported as “inhibited the growth of these cells at low nanomolar concentrations”, the “toxicity on non-transformed BJ skin fibroblasts (colony formation)” value (BJ skin fibroblasts; listed as (R)-enantiomer) is reported as “significantly impairs the growth; also recorded: higher toxicity” and the “staining of anti-8-oxo-guanine antibody” value (BJ fibroblasts) is reported as “not”. The “targets identified by chemical proteomics” value [2] was “common target of crizotinib in all samples”.

For `C[C@H](Oc1cc(-c2cnn(C3CCNCC3)c2)cnc1N)c1c(Cl)ccc(F)c1Cl` [(S)-enantiomer of crizotinib, (S)-3-[1-(2,6-dichloro-3-fluoro-phenyl)-ethoxy]-5-(1-piperidin-4-yl-1H-pyrazol-4-yl)-pyridin-2-ylamine], the “growth of MCF-7 in colony formation assay” value (MCF-7) was “significantly decreased the growth”, the “growth of MDA-MB-231 in colony formation assay” value (MDA-MB-231) was “significantly decreased the growth” and the P-ALAT [3, 16] was 0.26 ± 0.07 mCat/l. It also gave a p-ASAT [3, 16] of 1.10 ± 0.32 mCat/l, a p-Creatinine [3, 16] of 18.6 ± 4.24 µM and an HBG [3, 17] of 134 ± 6.25 g/L. The Lymphocytes [3, 17] was 0.23 ± 0.06 10^9/l, the MCH [3, 17] was 14.07 ± 0.30 pg and the MCHC [3, 17] was 327 ± 4.90 g/L. The MCV [3, 17] was 43.02 ± 1.07 fL, the Monocytes [3, 17] was 0.16 ± 0.11 10^9/l and the Neutrophils [3, 17] was 1.50 ± 0.51 10^9/l. For the same molecule, the RBC [3, 17] was 9.51 ± 0.37 10^12/l, the Thrombocytes [3, 17] was 828 ± 160 10^9/l and the WBC [3, 17] was 1.90 ± 0.64 10^9/l. The tolerability ([3]; 25 mg/kg s.c. once daily, 35 days) was “well-tolerated”, the “change in haematological parameters” value ([3]; 25 mg/kg s.c., 35 days, versus vehicle) was “no significant change” and the “reduction in tumour volume” value (SW480 cells [4]) was “more than 50%”. The “toxicity on non-transformed BJ skin fibroblasts (colony formation)” value (BJ skin fibroblasts) was “does not exhibit any increased unspecific cytotoxicity”, the “toxicity to transformed versus wildtype / hTERT-immortalized BJ cells” value [5] was “more toxic to transformed cells than to wildtype cells” and the “tail moment in the comet assay” value (SW480 cells [6]) was “yielded a significant tail moment”. The “staining of anti-8-oxo-guanine antibody” value (BJ fibroblasts) was “increased staining”, the “main cellular target in SW480 cells” value [7] was “MTH1 (gene name NUDT1) is the main target” and the ATM phosphorylation (SW480 cells [8]) was “increase of ATM phosphorylation”. For the same molecule, the “colony formation / growth of SW480 cells” value (SW480 cells [9]) was “efficiently inhibited colony formation; also recorded: considerably more effective”, the “number of 53BP1 foci” value (SW480 cells [10]) was “increase the number of 53BP1 foci” and the “effect of loss of p21 on sensitivity of HCT116 cells” value [11] was “seems to increase the sensitivity”. The “effect of p53 status and functional MLH1 on activity in HCT116 cells” value [11] was “do not affect the activity” and the “colony formation of PANC1 cells” value [12] was “efficiently inhibited colony formation”.

With `CC(Oc1cc(-c2cnn(C3CCN(CCCN)CC3)c2)cnc1N)c1c(Cl)ccc(F)c1Cl` (centres unmarked) [CeMM-146] the “enrichment / binding of ALK isoforms by immobilized compound” value (ALK) was “enriches both ALK isoforms to highest extent” and the “inhibition of MTH1 catalytic activity (in words)” value (MTH1 [13]; 8-oxo-dGTP hydrolysis) was “nanomolar inhibition”.

In the case of `Cn1cc(-c2ccc3nnc(C(F)(F)c4ccc5ncccc5c4)n3n2)cn1` [JNJ-38877605, reference compound], the “colony formation / growth of SW480 cells” value (SW480 cells [9]) is reported as “does not suppress growth”.

In the case of `COc1cc(N2CCC(N3CCN(C)CC3)CC2)ccc1Nc1ncc(Cl)c(Nc2ccccc2S(=O)(=O)C(C)C)n1` [NVP-TAE684, reference compound], the “inhibition of MTH1 catalytic activity at 100 μM” value (MTH1 [13]; concentrations of 100 μM, data not shown) is reported as “did not exhibit any significant inhibition”.

Work on `COc1ccc2nc3c(c(C)nn3C)c(NCCOCCO)c2c1` [SCH51344] yielded a TΔS (MTH1 [14]) of 3.17 kcal/mol, a Kd (MTH1 [14]; [18]) of 49 ± 5.6 nM and a ΔH (MTH1 [14]; [18]) of -6.479 ± 0.045 kcal/mol. The “tail moment in the comet assay” value (SW480 cells [6]) was “yielded a significant tail moment” and the “number of 53BP1 foci” value (SW480 cells [10]) was “increase the number of 53BP1 foci”.

With “anti-MTH1 siRNA: siRNA against MTH1; custom sequence CGACGACAGCUACUGGUUU (SEQ ID No. 48) or SMARTpool set (listed as RNA, chemistry not given here)” the “viability of SW480 cells after MTH1 gene silencing” value [15] was “impairs viability”.
